Measurements from paper PMC11124870, “Effect of Antioxidants in Medicinal Products on Intestinal Drug Transporters” (Pharmaceutics, 2024).

Molecular target: T1, P-gp (Homo sapiens, UniProt P08183)
T1 construct: purchased ThermoFisher Scientific GM0015; host or cells: Sf9 membrane vesicles
Assay: Vesicular transport assay, 3H-NMQ uptake in P-gp membrane vesicles
Assay type: biochemical
Experimental: The vesicular transport assay was performed using Spodoptera frugiperda 9 (Sf9) membrane vesicles overexpressing human P-gp or BCRP, as reported previously with minor modifications. In brief, Isoplate 96-well flat-bottom white plates were preincubated with HBSS containing 0.5 mg/mL BSA on an orbital shaker in a 37 °C incubator at 90 rpm for 60 min followed by washing with HBSS. The assay mixture (75 µL/well) contained a probe substrate and either vehicle control, a known inhibitor of P-gp or BCRP, or an antioxidant, in vesicle uptake buffer (50 mM MOPS-Tris, pH 7.0 + 70 mM KCl + 7.5 mM MgCl2) prewarmed to 37 °C. After addition of the assay mixture, 5 μL/well (5 μg/μL stock concentration of the vesicles) of vesicles overexpressing human P-gp or BCRP was added. Uptake assays were initiated by adding 20 μL of either 25 mM adenosine triphosphate (ATP) or 25 mM adenosine monophosphate (AMP) to a final concentration of 5 mM. Plates were incubated at 37 °C for 20 min with orbital shaking (90 rpm). After 20 min, the uptake was quenched by adding 150 μL of ice-cold wash buffer (40 mM MOPS-Tris, pH 7.0 + 70 mM KCl) to each well, and the mixture was transferred to a 96-well filtration plate. Vacuum was applied, and the vesicles were washed three times with wash buffer. Vesicles were then lysed with 100 µL of MicroScint-20.

T1 sequence (P08183 whole entry): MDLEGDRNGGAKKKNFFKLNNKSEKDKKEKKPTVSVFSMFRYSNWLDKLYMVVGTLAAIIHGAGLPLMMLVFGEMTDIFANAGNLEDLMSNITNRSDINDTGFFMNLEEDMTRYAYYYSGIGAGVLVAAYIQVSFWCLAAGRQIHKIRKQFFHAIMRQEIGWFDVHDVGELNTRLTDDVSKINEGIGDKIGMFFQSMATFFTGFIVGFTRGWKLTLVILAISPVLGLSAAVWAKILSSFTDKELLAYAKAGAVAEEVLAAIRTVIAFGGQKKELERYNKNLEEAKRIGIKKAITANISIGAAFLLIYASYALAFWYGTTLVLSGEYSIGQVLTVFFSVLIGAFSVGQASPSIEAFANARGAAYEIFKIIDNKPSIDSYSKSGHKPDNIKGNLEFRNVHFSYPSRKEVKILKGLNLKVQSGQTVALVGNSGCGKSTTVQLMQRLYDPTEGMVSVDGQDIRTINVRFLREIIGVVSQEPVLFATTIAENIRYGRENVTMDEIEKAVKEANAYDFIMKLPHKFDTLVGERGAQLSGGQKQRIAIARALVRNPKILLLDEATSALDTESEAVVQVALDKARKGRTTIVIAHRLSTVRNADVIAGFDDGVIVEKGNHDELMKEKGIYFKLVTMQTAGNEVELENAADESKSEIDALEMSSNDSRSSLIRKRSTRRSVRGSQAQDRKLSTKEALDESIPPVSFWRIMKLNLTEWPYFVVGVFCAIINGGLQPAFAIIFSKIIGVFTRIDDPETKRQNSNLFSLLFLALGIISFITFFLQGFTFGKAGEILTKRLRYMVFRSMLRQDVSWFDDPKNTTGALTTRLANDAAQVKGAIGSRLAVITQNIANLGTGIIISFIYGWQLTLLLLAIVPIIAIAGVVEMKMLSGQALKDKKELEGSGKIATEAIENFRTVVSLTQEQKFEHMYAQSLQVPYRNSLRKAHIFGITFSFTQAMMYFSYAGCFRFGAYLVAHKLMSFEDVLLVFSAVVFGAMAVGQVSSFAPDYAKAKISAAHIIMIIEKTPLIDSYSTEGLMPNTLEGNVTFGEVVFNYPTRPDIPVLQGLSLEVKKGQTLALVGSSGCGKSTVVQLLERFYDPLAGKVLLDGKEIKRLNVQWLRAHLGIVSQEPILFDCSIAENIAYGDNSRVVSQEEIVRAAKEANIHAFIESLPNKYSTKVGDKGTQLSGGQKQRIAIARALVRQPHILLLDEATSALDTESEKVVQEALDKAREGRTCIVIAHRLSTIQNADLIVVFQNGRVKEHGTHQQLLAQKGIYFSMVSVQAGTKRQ

## COc1ccc(O)cc1C(C)(C)C [Butylated hydroxyanisole (BHA), 2-tert-Butyl-4-hydroxyanisole]
200 µM, 3H-NMQ
  Inhibition of P-gp: at least 50%
Antioxidant 200 µM, uptake with DMSO set as 100%, mean ± SD, three replicates, membrane vesicles
  % Uptake of 3H-NMQ P-gp: 42.1 ± 5.7%
Substrate 3H-NMQ, mean ± SD of three independent experiments
  IC50: 182 ± 49 µM
